Test results as given in BindingDB's records for doi:10.1021/jm00039a013 (Pfizer, 1994).
pIC50: −log10 of the molar value.

Experiment: Inhibitory activity against acetylcholinesterase in mice at the dose of 4.8 mg/kg via intraperitoneal administration

## CCCCCCCNC(=O)Oc1ccc2c(c1)[C@]1(C)CCN(C)[C@@H]1N2C [(3aS,8aR)-1,3a,8-trimethyl-1H,2H,3H,3aH,8H,8aH-pyrrolo[2,3-b]indol-5-yl N-heptylcarbamate]
  pIC50: 6.83
